34 compounds from patent US20040023972A1, “Use of substituted imidazo[1,2-a]-pyridin-, -pyrimidin-and-pyrazin-3-yl-amine derivatives in the preparation of medicaments for inhibiting NOS” (Gruenenthal GmbH, priority 2000, published 2004) can be followed below.

One may read the inhibition as the drop in the measured response relative to a control, in per cent.

One experiment concerns the target T1, NO synthase (Rattus norvegicus, UniProt P29476).
T1 construct: the supernatant was then removed by decantation and frozen in portions at −80° C; from tissue; host or cells: rat cerebellum, 20,000 g supernatant of homogenate
Nature of the experiment: HTS-NOS assay (NOS assay): conversion of radioactive arginine, cation-exchanger filter plate. To be noted: 10 μM. The format is biochemical. Put shortly: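 Percent inhibition was derived by comparing remaining radioactive arginine with compound-free controls. Arginine retained on phosphate cation-exchanger filters was counted after citrulline washout, following a 5-60 min room-temperature (25 °C) reaction of labelled arginine, NADPH-containing medium and rat cerebellar homogenate supernatant.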
Take `C#[N+]CCCCCCN(C(C)=O)c1c(-c2ccccc2OC)nc2ccc([N+](=O)[O-])cn12` [Example 238, (6-{acetyl-[2-(2-methoxy-phenyl)-6-nitro-imidazo[1,2-a]pyridin-3-yl]-amino}-hexyl)-methylidyne-ammonium]: the “HTS-NOS assay: % inhibition (10 μM)” value is 52%.

For the compound `C#[N+]CCCCCCN(C(C)=O)c1c(-c2ccccc2OC)nc2cc(C)cc(C)n12` [Example 240, (6-{acetyl-[2-(2-methoxy-phenyl)-5,7-dimethyl-imidazo[1,2-a]pyridin-3-yl]-amino}-hexyl)-methylidyne-ammonium], the “HTS-NOS assay: % inhibition (10 μM)” value was determined as 61%.

`[C-]#[N+]CCCCCCN(C(C)=O)c1c(-c2cccnc2)nc2cc(C)ccn12` [Example 241, {6-[acetyl-(7-methyl-2-pyridin-3-yl-imidazo[1,2-a]pyridin-3-yl)-amino]-hexyl}-methylidyne-ammonium]: the “HTS-NOS assay: % inhibition (10 μM)” value is recorded as 62%.

With `CC(=O)OCc1ccc(-c2nc3cc(C)cc(C)n3c2N(C(C)=O)c2c(C)cccc2C)o1` [Example 243, acetic acid 5-{3-[acetyl-(2,6-dimethyl-phenyl)-amino]-5,7-dimethyl-imidazo[1,2-a]pyridin-2-y}-furan-2-yl methyl ester], the “HTS-NOS assay: % inhibition (10 μM)” value was determined as 62%.

On to `CC(=O)N(c1c(-c2ccccc2C(F)(F)F)nc2ccccn12)C(C)(C)C` [Example 245, N-tert-butyl-N-[2-(2-trifluorO-methyl-phenyl)-imidazo[1,2-a]pyridin-3-yl]-acetamide], for which the “HTS-NOS assay: % inhibition (10 μM)” value was determined as 56%.

Turning to `CC(=O)OCc1ccc(-c2nc3ncccn3c2N(C(C)=O)C(C)(C)CC(C)(C)C)o1` [Example 249, acetic acid 5-{3-[acetyl-(1,1,3,3-tetramethyl-butyl)-amino]-imidazo[1,2-a]-pyrimidin-2-yl}-furan-2-yl methyl ester], the “HTS-NOS assay: % inhibition (10 μM)” value was 54%.

As for `CC(=O)OCc1ccc(-c2nc3cccc(C)n3c2N(C(C)=O)C2CCCCC2)o1` [Example 260, acetic acid 5-[3-(acetyl-cyclohexyl-amino)-5-methyl-imidazo[1,2-a]pyridin-2-yl]-furan-2-yl methyl ester], the “HTS-NOS assay: % inhibition (10 μM)” value was determined as 51%.

Turning to `CC(=O)N(c1c(C)cccc1C)c1c(-c2ccccc2C(F)(F)F)nc2ccc(C)cn12` [Example 261, N-(2,6-dimethyl-phenyl)-N-[6-methyl-2-(2-trifluorO-methyl-phenyl)-imidazo[1,2-a]pyridin-3-yl]-acetamide], the “HTS-NOS assay: % inhibition (10 μM)” value was found to be 61%.

The experiment is the same for the next values; noted with them: read-out: HTS-NOS assay: % inhibition (10 μM).
As to `CCCCN(C(C)=O)c1c(-c2ccccc2OC)nc2ccccn12` [Example 237, N-butyl-N-[2-(2-methoxy-phenyl)-imidazo[1,2-a]pyridin-3-yl]-acetamide], the inhibition at 10 µM was found to be 55%.

Consider `CC(=O)N(c1c(C)cccc1C)c1c(-c2cc3ccccc3o2)nc2cc(C)ccn12` [Example 239, N-(2-benzofuran-2-yl-7-methyl-imidazo[1,2-a]pyridin-3-yl)-N-(2,6-dimethylphenyl)-acetamide], for which the inhibition at 10 µM stood at 52%.

As to `CC(=O)N(c1c(-c2ccc(C)cc2)nc2ccc(C)cn12)C(C)(C)CC(C)(C)C` [Example 242, N-(6-methyl-2-p-tolyl-imidazo[1,2-a]pyridin-3-yl)-N-(1,1,3,3-tetramethyl-butyl)-acetamide], the inhibition at 10 µM is 58%.

For the compound `COC(=O)CN(C(C)=O)c1c(-c2cccc(O)c2)nc2ccc(C)cn12` [Example 244, {acetyl-[2-(3-hydroxy-phenyl)-6-methyl-imidazo[1,2-a]pyridin-3-yl]-amino}-acetic acid methyl ester], the inhibition at 10 µM turned out to be 50%.

`CCCCN(C(C)=O)c1c(-c2ccc(F)cc2Cl)nc2ccccn12` [Example 246, N-butyl-N-[2-(2-chloro-4-fluoro-phenyl)-imidazo[1,2-a]pyridin-3-yl]-acetamide]: the inhibition at 10 µM was determined as 55%.

On to `CC(=O)N(c1c(C)cccc1C)c1c(-c2ccc(Cl)cc2Cl)nc2ccccn12` [Example 247, N-[2-(2,4-dichloro-phenyl)-imidazo[1,2-a]pyridin-3-yl]-N-(2,6-dimethyl-phenyl)-acetamide], for which the inhibition at 10 µM was 56%.

Take `CC(=O)N(c1c(-c2ccc(C(=O)O)o2)nc2nc(C)ccn12)C(C)(C)CC(C)(C)C` [Example 248, 5-{3-[acetyl-(1,1,3,3-tetramethyl-butyl)-amino]-7-methyl-imidazo[1,2-a]-pyrimidin-2-yl}-furan-2-carboxylic acid]: the inhibition at 10 µM stood at 52%.

For `CC(=O)N(c1c(C)nc2cc(C)ccn12)C(C)(C)CC(C)(C)C` [Example 250, N-(2,7-dimethyl-imidazo[1,2-a]pyridin-3-yl)-N-(1,1,3,3-tetramethyl-butyl)-acetamide], the inhibition at 10 µM is 58%.

Take `COc1cc(-c2nc3nc(Cl)cc(N)n3c2N(C(C)=O)C2CCCCC2)ccc1OC(C)=O` [Example 251, acetic acid 4-[3-(acetyl-cyclohexyl-amino)-5-amino-7-chloro-imidazo[1,2-a]-pyrimidin-2-yl]-2-methoxy-phenyl ester]: the inhibition at 10 µM came to 51%.

As to `COc1cc(-c2nc3nc(C)cc(C)n3c2N(C(C)=O)C2CCCCC2)ccc1OC(C)=O` [Example 252, acetic acid 4-[3-(acetyl-cyclohexyl-amino)-5,7-dimethyl-imidazo[1,2-a]-pyrimidin-2-yl]-2-methoxy-phenyl ester], the inhibition at 10 µM came to 53%.

With `CC(=O)N(c1c(-c2c(F)cccc2Cl)nc2c(C)cc(Br)cn12)C1CCCCC1` [Example 253, N-[6-bromo-2-(2-chloro-6-fluoro-phenyl)-8-methyl-imidazo[1,2-a]pyridin-3-yl]-N-cyclohexyl-acetamide], the inhibition at 10 µM worked out at 51%.

Consider `CC(=O)N(c1c(-c2c(F)cccc2Cl)nc2cccc(C)n12)C1CCCCC1` [Example 254, N-[2-(2-chloro-6-fluoro-phenyl)-5-methyl-imidazo[1,2-a]pyridin-3-yl]-N-cyclohexyl-acetamide], for which the inhibition at 10 µM came to 51%.

In the case of `CCCCN(C(C)=O)c1c(-c2cccc(Cl)c2Cl)nc2ncccn12` [Example 255, N-butyl-N-[2-(2,3-dichloro-phenyl)-imidazo[1,2-a]pyrimidin-3-yl]-acetamide], the inhibition at 10 µM amounted to 65%.

For `CC(=O)N(c1c(-c2ccc(Cl)s2)nc2ncccn12)C(C)(C)CC(C)(C)C` [Example 256, N-[2-(5-chloro-thiophen-2-yl)-imidazo[1,2-a]pyrimidin-3-yl]-N-(1,1,3,3-tetramethyl-butyl)-acetamide], the inhibition at 10 µM is 55%.

In the case of `COC(=O)CN(C(C)=O)c1c(C2CCCCC2)nc2cc(C)ccn12` [Example 257, [acetyl-(2-cyclohexyl-7-methyl-imidazo[1,2-a]pyridin-3-yl)-amino]-acetic acid methyl ester], the inhibition at 10 µM amounted to 56%.

Take `CC(=O)N(c1c(-c2c(F)cccc2Cl)nc2ccccn12)C(C)(C)C` [Example 258, N-tert-butyl-N-[2-(2-chloro-6-fluoro-phenyl)-imidazo[1,2-a]pyridin-3-yl]-acetamide]: the inhibition at 10 µM worked out at 60%.

Turning to `CC(=O)N(c1c(-c2ccccn2)nc2cc(C)cc(C)n12)C1CCCCC1` [Example 259, N-cyclohexyl-N-(5,7-dimethyl-2-pyridin-2-yl-imidazo[1,2-a]pyridin-3-yl)-acetamide], the inhibition at 10 µM was determined as 73%.

With `CC(=O)N(c1c(-c2ccco2)nc2cc(C)ccn12)C1CCCCC1` [Example 262, N-cyclohexyl-N-(2-furan-2-yl-7-methyl-imidazo[1,2-a]pyridin-3-yl)-acetamide], the inhibition at 10 µM came to 54%.

`CC(=O)N(c1c(-c2ccccn2)nc2cc(C)ccn12)C1CCCCC1` [Example 263, N-cyclohexyl-N-(7-methyl-2-pyridin-2-yl-imidazo[1,2-a]pyridin-3-yl)-acetamide]: the inhibition at 10 µM is 64%.

Regarding `CC(=O)N(c1c(-c2ccc(C3OCCO3)o2)nc2cccc(C)n12)C1CCCCC1` [Example 264, N-cyclohexyl-N-[2-(5-[1,3]dioxolan-2-yl-furan-2-yl)-5-methyl-imidazo[1,2-a]-pyridin-3-yl]-acetamide], the inhibition at 10 µM was 50%.

With `CCCc1cccc2nc(-c3cccnc3)c(N(C(C)=O)C(C)(C)C)n12` [Example 265, N-tert-butyl-N-(5-propyl-2-pyridin-3-yl-imidazo[1,2-a]pyridin-3-yl)-acetamide], the inhibition at 10 µM came out at 54%.

Regarding `CC(=O)N(c1c(-c2ccc(C)s2)nc2ncccn12)C(C)(C)C` [Example 266, N-tert-butyl-N-[2-(5-methyl-thiophen-2-yl)-imidazo[1,2-a]pyrimidin-3-yl]-acetamide], the inhibition at 10 µM was determined as 53%.

With `CC(=O)N(c1c(-c2ccco2)nc2c(C(=O)O)cccn12)C(C)(C)CC(C)(C)C` [Example 267, 3-[acetyl-(1,1,3,3-tetramethyl-butyl)-amino]-2-furan-2-yl-imidazo[1,2-a]pyridine-8-carboxylic acid], the inhibition at 10 µM stood at 62%.

For the compound `CC(=O)N(c1c(-c2cc(C)c(C)o2)nc2ccc(C)cn12)C(C)(C)C` [Example 268, N-tert-butyl-N-[2-(4,5-dimethyl-furan-2-yl)-6-methyl-imidazo[1,2-a]pyridin-3-yl]-acetamide], the inhibition at 10 µM is 51%.

On to `CC(=O)N(c1c(-c2cccc(Oc3ccc(Cl)cc3)c2)nc2ccccn12)C1CCCCC1` [Example 269, N-{2-[3-(4-chloro-phenoxy)-phenyl]-imidazo[1,2-a]pyridin-3-yl}-N-cyclohexyl-acetamide], for which the inhibition at 10 µM was found to be 51%.

On to `COc1cc(-c2nc3ncccn3c2N(C(C)=O)C2CCCCC2)ccc1OC(C)=O` [Example 270, acetic acid 4-[3-(acetyl-cyclohexyl-amino)-imidazo[1,2-a]pyrimidin-2-yl]-2-methoxy-phenyl ester], for which the inhibition at 10 µM is 52%.
